Test [1] concerns the target T1, human BACE1 (rhBACE1) (Homo sapiens, UniProt P56817). Put plainly: Caliper BACE1 activity assay (microfluidic capillary electrophoresis). It counts as biochemical. The arrangement: containing human BACE1 (extracellular domain). To be noted: 12 nM rhBACE1, 1 μM FAM-substrate, pH 4.4. On the procedure: An MCE assay reactions can be carried out in a standard enzymatic reaction, initiated by the addition of substrate to enzyme and 4× compound, containing human BACE1 (extracellular domain), amyloid precursor protein beta secretase active site peptide (FAM-[…]-CONH2 (SEQ ID NO: 20)), 50 mM NaOAc pH 4.4 and 0.1% CHAPS. After incubation for 60 minutes at ambient temperature, the product and substrate in each reaction is separated using a 12-sipper microfluidic chip analyzed on an LC3000® (both, Caliper Life Sciences). The separation of product and substrate is optimized by choosing voltages and pressure using the manufacturer's optimization software. Substrate conversion is calculated from the electrophoregram using HTS Well Analyzer software (Caliper Life Sciences).
BACE1, BACE2 and Cathepsin D Activity Assay Using Microfluidic Capillary Electrophoresis (MCE).
BACE1, BACE2, and Cathepsin D reactions were carried out in a final volume of 20 μl per well in a 384-well microplate using a Caliper LabChip 3000 (Hopkinton, Mass.). A standard enzymatic reaction, initiated by the addition of 10 μ12× substrate to 5 μl of 4× enzyme and 5 μl of 4× peptide or small molecule inhibitor, contained 12 nM rhBACE1, 1 μM FAM-[…]-amide (SEQ ID NO: 20), 50 mM NaOAc, pH 4.4, 0.1% CHAPS. The same reaction conditions were used for rhBACE2 (5 nM) and Cathepsin D (6 nM) (Cat. No. 219394; EMD Biosciences, San Diego, Calif.). After incubation for 60 min at room temperature, the product and substrate in each reaction were separated using a 12-sipper microfluidic chip. Separation of product and substrate was optimized by choosing voltages and pressure using the Caliper Optimizer software. The separation buffer contained 100 mM HEPES, pH 7.2, 0.015% Brij-35, 0.1% Coating Reagent #3, 10 mM EDTA and 5% DMSO. The separation conditions used a downstream voltage of −500 V, an upstream voltage of −2250 V, and a screening pressure of −1.2 psi. The product and substrate fluorescence was excited at 488 nm and detected at 530 nm. Substrate conversion was calculated from the electrophoregram using the Caliper HTS Well Analyzer software.
Target sequence in this assay (P56817 46-457 limits assumed): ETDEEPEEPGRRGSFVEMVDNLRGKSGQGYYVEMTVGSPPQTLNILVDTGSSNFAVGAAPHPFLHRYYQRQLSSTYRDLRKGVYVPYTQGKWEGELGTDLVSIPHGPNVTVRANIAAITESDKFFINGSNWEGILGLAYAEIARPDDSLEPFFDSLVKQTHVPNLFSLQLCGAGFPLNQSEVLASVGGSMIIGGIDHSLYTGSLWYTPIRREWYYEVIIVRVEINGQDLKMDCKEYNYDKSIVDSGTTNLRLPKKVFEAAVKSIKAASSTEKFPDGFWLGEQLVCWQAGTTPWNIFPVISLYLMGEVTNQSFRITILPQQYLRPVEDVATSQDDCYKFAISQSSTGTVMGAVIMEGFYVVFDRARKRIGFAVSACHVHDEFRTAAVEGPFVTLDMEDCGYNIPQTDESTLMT

The target of test [2] is T1, human BACE1 (rhBACE1). Kind of test: BACE1 HTRF activity assay (Bi27 substrate). Format: biochemical. To be noted: for IC50: Bi27 27-mer substrate, pH 4.4. As for the experimental part:
Briefly, a homogeneous time-resolved fluorescence (HTRF) assay can be used to measure BACE1 aspartyl protease activity with the use of an amyloid precursor protein BACE1 cleavage site peptide. For example, the Bi27 peptide (Biotin-[…] (SEQ ID NO:5), American Peptide Company)), is combined with BACE1 pre-incubated with an anti-BACE antibody in BACE reaction buffer (50 mM sodium acetate pH 4.4 and 0.1% CHAPS) in a 384-well plate (Proxiplate™, Perkin-Elmer). The proteolytic reaction mixture is incubated at ambient temperature for 75 minutes and is quenched by the addition of 5 μL HTRF detection mixture containing 2 nM Streptavidin-D2 and 150 nM of an anti-amyloid beta antibody labeled with Europium cryptate in detection buffer (200 mM Tris pH 8.0, 20 mM EDTA, 0.1% BSA, and 0.8M KF). The final reaction mixture is incubated at ambient temperature for 60 minutes and the TR-FRET signal is measured using an EnVision Multilabel Plate Reader™ (Perkin-Elmer) at an excitation wavelength of 320 nm and emission wavelengths of 615 and 665 nm.
BACE1 HTRF Activity Assay.
The BACE1 HTRF reaction was initiated by the addition of 2 μl of 600 nM Bi27 (Biotin-[…] (SEQ ID NO: 5), American Peptide Company) to 6 μl of 2.7 nM rhBACE1 pre-incubated with peptides or small molecule inhibitors in BACE1 reaction buffer (50 mM NaOAc pH 4.4 and 0.1% CHAPS) in a 384-well Proxiplate (Perkin Elmer). The 8 μl proteolytic reaction mixture was incubated at ambient temperature for 24 h and was quenched by the addition of 8 μl HTRF detection mixture containing 150 nM Streptavidin-D2 and 5 nM 6E10 labeled with Europium cryptate in detection buffer (200 mM Tris pH 8.0, 20 mM EDTA, 0.1% BSA, and 0.8 M KF). The final reaction mixture was incubated at room temperature for 60 min and the TR-FRET signal was measured on the EnVision Multilabel Plate Reader (Perkin Elmer) (excitation at 320 nm, emission at 615 and 665 nm). The data was analyzed using GraphPad Prism 5 (La Jolla, Calif.).
Target sequence in this assay (P56817 46-501): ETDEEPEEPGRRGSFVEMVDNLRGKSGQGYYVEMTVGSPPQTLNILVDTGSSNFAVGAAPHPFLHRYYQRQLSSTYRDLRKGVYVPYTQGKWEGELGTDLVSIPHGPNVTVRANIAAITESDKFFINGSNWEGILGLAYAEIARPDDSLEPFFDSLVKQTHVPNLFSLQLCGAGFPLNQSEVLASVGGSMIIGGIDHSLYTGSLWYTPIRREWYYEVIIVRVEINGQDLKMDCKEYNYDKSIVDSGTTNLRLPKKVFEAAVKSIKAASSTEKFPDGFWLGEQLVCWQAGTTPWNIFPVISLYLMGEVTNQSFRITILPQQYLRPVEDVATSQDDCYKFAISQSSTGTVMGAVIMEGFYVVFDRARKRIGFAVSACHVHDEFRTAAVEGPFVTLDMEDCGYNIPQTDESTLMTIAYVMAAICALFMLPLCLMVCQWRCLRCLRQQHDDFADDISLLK

Test [3] deals with T1, human BACE1 (rhBACE1). Put plainly: BACE1 fluorescence polarization (FP) competition binding assay with 5-TAMRA-BACE020 probe. To be noted: competition with 3 nM 5-TAMRA-BACE020, 12 nM rhBACE1, pH 4.4. On the procedure:
BACE1 Fluorescence Polarization Competition Binding Assay.
BACE1 binding assays were carried out in a final volume of 10 μL per well in black 384-well microplates (Proxiplate-Plus; Perkin Elmer, Waltham, Mass.). A standard binding reaction, initiated by the addition of 5 μL 2× enzyme to 2.5 μL of 4× binding probe and […] of 4× inhibitor, contained 12 nM rhBACE1, 3 nM 5-TAMRA-[…] (SEQ ID NO: 16) (5-TAMRA-BACE020), 50 mM NaOAc, pH 4.4 with 0.1% CHAPS. The reaction was permitted to proceed towards equilibrium for 2 h at ambient temperature prior to fluorescence polarization measurement using Envision (Perkin Elmer). The parallel and perpendicular fluorescent emissions measured in each well at 595 nm (excitation 531 nm polarized light) were used to determine the milli-polarization level (mP) using the following formula: mP=1000*(S-G*P)/(S+G*P) where S=parallel emission, P=perpendicular emission and G=0.65. The mP value in each well was plotted as a function of inhibitor concentration and the 50% inhibition (IC50) values were determined using a nonlinear least squares fit of the data to a four parameter equation using Prism 5.0 software (GraphPad Software, San Diego, Calif.). 5-TAMRA-labeled BACE020 was purchased from American Peptide Company, Inc (Sunnyvale, Calif.) and solubilized in DMSO to 100 mM for storage.
The affinities of BACE1 peptide ligands were measured using the abovementioned competition binding FP assay for determining IC50 values with serially diluted peptides. A Caliper assay was used to measure the inhibition of BACE1 enzymatic activity by peptide ligands. […] Furthermore, the IC50 values measured by the Caliper assay for peptides BACE017-021 and BACE025-028 are consistent with those measured by the HTRF assay.
Target sequence in this assay (P56817 46-501): as above

Test [4] relates to Aβ1-40 production in 293-hAPP cells. Kind of test: Aβ1-40 assay in 293-hAPP cells. To be noted: 293-HEK cells stably transfected with APP, 24 h. It counts as cell-based, human. As for the experimental part: Aβ1-40 Assay in 293-hAPP Cells.
Aβ1-40 production was measured in 293-HEK cells stably expressing wild-type human APP(695) complementary DNA (cDNA) (293-hAPP). Cells were seeded overnight at 3×10^4 cells per well in a 96-well plate. Fresh media [Dulbecco's modified Eagle's medium (DMEM)+10% fetal bovine serum (FBS)] containing various inhibitors were incubated with the 293-hAPP cells for 24 h. The cellular medium was harvested and assayed for the presence of Aβ1-40 with an Aβ1-40 HTRF assay (CisBio) according to the manufacturer's instructions. Aβ1-40 values were normalized for cell viability, as determined with the CellTiter-Glo Luminescent Cell Viability Assay (Promega). Experiments were performed at least 3 times, and each point in each experiment was repeated in duplicate. Data was plotted with a 4-parameter nonlinear regression curve-fitting program (KaleidaGraph, Synergy Software).

Test [5] deals with T2, BACE1 (Homo sapiens, UniProt P56817). Put plainly: Biotinylated BACE020 competition binding ELISA. Set-up: extracellular domain (ECD) (residues 22-457) and a C-terminal His8 tag; made in house; host or cells: Chinese hamster ovary cells (transient). Particulars: concentration dependent addition of competitor. As for the experimental part: The coated wells were washed with buffer (PBS, 0.05% Polysorbate 20) and blocked with assay buffer (PBS, pH 7.4, 0.5% BSA, 0.05% Tween 20, 15 ppm Proclin) for 1 h at room temperature with gentle shaking.
Target sequence in this assay (P56817 22-457): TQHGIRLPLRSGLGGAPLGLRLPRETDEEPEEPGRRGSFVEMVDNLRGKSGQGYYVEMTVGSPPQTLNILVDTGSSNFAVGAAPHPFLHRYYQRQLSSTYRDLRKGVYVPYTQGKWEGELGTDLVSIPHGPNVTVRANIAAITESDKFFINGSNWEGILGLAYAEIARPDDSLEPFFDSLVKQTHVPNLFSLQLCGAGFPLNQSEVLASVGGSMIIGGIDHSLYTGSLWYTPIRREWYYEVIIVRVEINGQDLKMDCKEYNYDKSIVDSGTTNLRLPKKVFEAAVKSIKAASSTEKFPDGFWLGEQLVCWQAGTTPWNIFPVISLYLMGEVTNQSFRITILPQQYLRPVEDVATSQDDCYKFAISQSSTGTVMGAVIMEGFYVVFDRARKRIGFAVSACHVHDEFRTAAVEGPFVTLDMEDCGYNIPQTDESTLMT

Test [6] deals with T2, BACE1. Kind of test: Phage ELISA of peptide-displaying phage on plate-immobilized BACE1. It counts as binding. Particulars: 70 nM BMS1 peptide. As for the experimental part: BMS1, BMS2 and BMS4 are the same as peptide identifiers 1, 2 and 4, respectively as previously described (Kornacker, M. G. et al. (2005) Biochemistry 44: 11567-73). […] FIG. 1C depicts the competition of peptide-displaying phage bound to BACE1 with synthesized peptide BMS1. The bars represent phage ELISA signal in the absence (gray) or presence (black) of 70 nM BMS1 peptide. The phage peptide ID is as denoted in FIG. 1A.
BACE017 is a BACE1 binding peptide ligand obtained from the solution panning of BACE1 against the naïve peptide library in the presence of 100 μM BACE010. BACE018-BACE021 are peptide sequences for BACE1 binding peptides derived from the affinity maturation of BACE017. The phage spot ELISA data is listed to indicate the relative binding affinity for individual clones. The column labeled with ELISA is the phage-binding signal to BACE1, s/n ratio represents the signal/noise ratio, in which “signal” is the data as shown in column “ELISA” and noise is the phage-binding signal to BSA as background nonspecific binding. […]
After 4 rounds of binding selection, individual phage clones were analyzed in a high-throughput spot phage ELISA (Sidhu, S. S. et al. (2000) Methods Enzymol 328: 333-63) using plate-immobilized BACE1 as the target. The binding signal of the same phage particle to BSA was detected as non-specific binding noise. […]
Target sequence in this assay (P56817 46-501): as the sequence (P56817 46-501) above

Positions of bridges follow the written chain, without caps; N, C: chain ends. Residues, ends and D or L forms follow the SMILES beside them. Where only a bound is given, the exact number is not on record here.

On to `CC[C@H](C)[C@H](NC(=O)[C@H](Cc1c[nH]cn1)NC(=O)[C@H](CCC(=O)O)NC(=O)[C@H](CCC(=O)O)NC(=O)[C@H](CC(N)=O)NC(C)=O)C(=O)N[C@@H](Cc1ccc(O)cc1)C(=O)N[C@H]1CSSC[C@@H](C(=O)NCC(N)=O)NC(=O)CNC(=O)[C@H](CC(C)C)NC(=O)CNC(=O)[C@H](CC(C)C)NC(=O)[C@H](CC(C)C)NC(=O)[C@H](CCCNC(=N)N)NC1=O` [BACE017] (Ac-NEEHIYCRLLGLGCG-NH2; disulfide 7-14), for which the IC50 against human BACE1 (rhBACE1) [1] was above 10000 nM; against human BACE1 (rhBACE1) [2] it was 438 nM; on human BACE1 (rhBACE1) [3] it was above 10000 nM.
As to `CSCC[C@@H]1NC(=O)[C@H](CC(C)C)NC(=O)[C@H](CCCNC(=N)N)NC(=O)[C@@H](NC(=O)[C@H](Cc2ccc(O)cc2)NC(=O)[C@@H]2CCCN2C(=O)[C@H](CO)NC(=O)[C@H](CC(C)C)NC(=O)[C@H](CCC(=O)O)NC(=O)[C@H](CC(N)=O)NC(C)=O)CSSC[C@@H](C(=O)N[C@@H](CC(=O)O)C(N)=O)NC(=O)CNC(=O)[C@H](CC(C)C)NC(=O)CNC1=O` [BACE019] (Ac-NELSPYCRLMGLGCD-NH2; disulfide 7-14), the IC50 on human BACE1 (rhBACE1) [2] worked out at 10 nM; at human BACE1 (rhBACE1) [3], 10 ± 3 nM.
Take `CC[C@H](C)[C@@H]1NC(=O)CNC(=O)[C@H](CC(C)C)NC(=O)[C@H](CC(C)C)NC(=O)[C@H](CCCNC(=N)N)NC(=O)[C@@H](NC(=O)[C@H](Cc2ccc(O)cc2)NC(=O)[C@H](CCSC)NC(=O)[C@H](CO)NC(=O)[C@H](CCC(=O)O)NC(=O)[C@H](CCC(=O)O)NC(=O)[C@H](CC(N)=O)NC(C)=O)CSSC[C@@H](C(=O)NCC(N)=O)NC(=O)CNC1=O` [BACE020] (Ac-NEESMYCRLLGIGCG-NH2; disulfide 7-14): the values for the IC50 at human BACE1 (rhBACE1) [1], against human BACE1 (rhBACE1) [2] and at human BACE1 (rhBACE1) [3] were 11 ± 3 nM, 12 nM and 11 ± 2 nM, respectively. Also, the “Inhibition of Aβ production in cells (in words)” value (from here on “Inhibition of Aβ production”) in test [4] was “potent inhibitor”. Moreover, the “Effect on BACE1 activity in HTRF enzyme activity assay (in words)” value (shortened to “Effect on BACE1 activity”) on human BACE1 (rhBACE1) [2] is “best inhibitory activity”.
For Ac-NEESMYSRLLGIGSG-NH2 [BACE027], the IC50 against human BACE1 (rhBACE1) [1] and at human BACE1 (rhBACE1) [3] was above 10000 nM each time. In addition, the “Inhibition of Aβ production” value in test [4] was “no inhibition”.
As for “Ac-NLTTYPYFIPLP-NH2 [BMS1, reference compound]”, on BACE1 [5], the “Competition for binding of biotinylated BACE020 to BACE1” value is reported as “no competition”. The “Inhibition of Aβ production” value in test [4] is recorded as “no inhibition”. The IC50 at human BACE1 (rhBACE1) [3] is above 10000 nM.
As for Ac-SGPYFIEYMSAV-NH2 [BACE010], the “Binding of phage-displayed peptide to BACE1 in competition with peptide BMS1” value on BACE1 [6] is on record as “competitive”. Further, on human BACE1 (rhBACE1) [2], the “Effect on BACE1 activity” value is reported as “very weak inhibitor”. Moreover, the IC50 at human BACE1 (rhBACE1) [3] is above 10000 nM.
As to “BACE011: Ac-SGCLDYPCFVPIS-NH2 (disulfide 3-8 (inferred))”, the “Binding of phage-displayed peptide to BACE1 in competition with peptide BMS1” value with BACE1 [6] is “competitive”. Further, the “Effect on BACE1 activity” value with human BACE1 (rhBACE1) [2] was “activator”.
Consider OM99-2 [reference compound], for which the “Inhibition of Aβ production” value in test [4] is reported as “not all enzymatic inhibitors showed cellular activity”.
